Data from PubChem BioAssay AID1963971 (Molecular Pharmacology Branch, DTP, NCI, 2024).
“And” between values parts separate entries of the source, which are not always exact repeats. Equal entries are not always repeated.

Tested on: 953936-095-R-J2-PDC spheroids with HUVEC/MSC, viability
Experiment: Anticancer human tumor 953936-095-R-J2-PDC patient-derived cervical squamous cell carcinoma cell line growth inhibition [PI3K]
Conditions: for IC50: curve of first compound; for viability, T/C: stronger effect = lower value
Excerpt: Combinatorial screen of targeted agents with the PI3K inhibitors inavolisib, alpelisib, duvelisib, and copanlisib in multi-cell type tumor spheroids
A high-throughput screen of multi-cell type tumor spheroids was designed to identify active combinations of targeted small molecules and PI3K pathway inhibitors. Complex spheroids include a stromal component modeled by human endothelial cells (HUVEC) and fibroblasts modeled by human mesenchymal stem cells (MSCs). The concentration ranges selected for each drug and investigational agent were based upon clinically achievable concentrations if the clinical Cmax of the agent was known.
Compounds. The drugs and investigational agents: inavolisib (NSC800729), alpelisib (NSC765974), duvelisib (NSC772469), copanlisib (NSC816437), ipatasertib (NSC767898), afuresertib (NSC778305), talazoparib (NSC767125), sapanisertib (NSC764658), selumetinib (NSC741078), tovorafenib (DAY101, NSC766906), vemurafenib (NSC761431), ravoxertinib (NSC781343), sotorasib (NSC818433), MRTX1133 (NSC 836407), abemaciclib (NSC 768073), palbociclib (NSC758247), venetoclax (NSC 766270), SY5609 (NSC837396), enzalutamide (NSC755605), and darolutamide (NSC825331), were obtained from the National Cancer Institute (NCI) Developmental Therapeutics Program Chemical Repository. The FDA-approved anticancer drug set is available from the NCI Developmental Therapeutics Program. […] The stock solutions were prepared in dimethyl sulfoxide (DMSO, Sigma-Aldrich, St. Louis, MO, cat. D2650) at 800-fold the tested concentration and stored at -70 degrees C prior to their use. All drugs and investigational agents were tested over a range starting from a high concentration at or near the clinical Cmax and decreasing in half-log increments. If the clinical Cmax for an agent had not been determined, the highest concentration tested was 10 microM.
Cell Culture. All cells were maintained in an incubator at 37 degrees C and 5% CO2 with 95% humidity. The PDC lines were cultured according to standard operating procedures established by the NCI PDMR (https://pdmr.cancer.gov/sops/default.htm). All PDCs were thawed and cultured in Matrigel-coated flasks prepared with a working solution of 1X Ham's F-12 nutrient mix, without supplementation (Invitrogen, Waltham, MA, cat. 11765054), 100 U/mL penicillin-streptomycin (Invitrogen, cat. 15140122), and 2.5% Matrigel (Corning Inc., Corning, NY, cat. 354248) for the first three passages. The 354836-022-R-J1-PDC, 475296-252-R-J1-PDC, and 997726-040-R-J2-PDC lines were cultured in 6A media, which includes advanced DMEM/F-12 (Thermo Fisher Scientific, cat. 12634028), 10 mM HEPES (Thermo Fisher Scientific, cat. 15630080), 1X GlutaMAX supplement (Thermo Fisher Scientific, cat. 35050061), 0.1 mg/mL primocin (InvivoGen, San Diego, CA, cat. ant-pm-2), 10% defined fetal bovine serum, heat inactivated (HyClone Laboratories Inc., Logan, UT, cat. SH30070.03HI), 50% L-WRN conditioned media (ATCC, cat. CRL-3276), 1.25 mM N-Acetyl-L-cysteine (Sigma-Aldrich, cat. A9165), 10 mM nicotinamide (Sigma-Aldrich, cat. N0636), 1X B-27 supplement (Thermo Fisher Scientific, cat. 17504044), 1X N-2 supplement (Thermo Fisher Scientific, cat. 17502048), and 10 microM Y-27632 dihydrochloride (Tocris Bioscience, Bristol, United Kingdom, cat. 1254). The 624824-186-R-J2-PDC line was cultured in 6C/Colon 1B media, which includes all 6A media components plus 50 ng/mL human EGF recombinant protein (Thermo Fisher Scientific, cat. PHG0311). […]

[1] = second compound 0.00316 µM, first compound 0.0316 µM
[2] = second compound 0.00316 µM, first compound 0.1 µM
[3] = second compound 0.01 µM, first compound 0.0316 µM
[4] = second compound 0.01 µM, first compound 0.1 µM
[5] = second compound 0.0316 µM, first compound 0.0316 µM
[6] = second compound 0.0316 µM, first compound 0.1 µM
[7] = second compound 0.1 µM, first compound 0.0316 µM
[8] = second compound 0.1 µM, first compound 0.1 µM
[9] = second compound 0.316 µM, first compound 0.0316 µM
[10] = second compound 0.316 µM, first compound 0.1 µM
[11] = second compound 1 µM, first compound 0.0316 µM
[12] = second compound 1 µM, first compound 0.1 µM
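Note: spheroids exposed to compounds for seven days before read-out.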

Q: For Cn1ncnc1[C@H]1c2n[nH]c(=O)c3cc(F)cc(c23)N[C@@H]1c1ccc(F)cc1 + COc1c(OCCCN2CCOCC2)ccc2c3n(c(=NC(=O)c4cnc(N)nc4)nc12)CCN3, which IC50 (second compound 0.00316 µM) is on record?
A: > 100 nM

Q: What about the IC50 (second compound 0.01 µM) of the same molecule?
A: > 100 nM

Q: And the IC50 (second compound 0.0316 µM)?
A: < 0.316 nM

Q: What about the IC50 (second compound 0.1 µM) of the same molecule?
A: < 0.316 nM

Q: And the IC50 (second compound 0.316 µM)?
A: < 0.316 nM

Q: What about the IC50 (second compound 1 µM) of the same molecule?
A: < 0.316 nM

Q: And the viability, T/C (second compound 0.00316 µM, first compound 0.000316 µM)?
A: 83%

Q: And the viability, T/C (second compound 0.00316 µM, first compound 0.001 µM)?
A: 102%

Q: What about the viability, T/C (second compound 0.00316 µM, first compound 0.00316 µM) of the same molecule?
A: 93.9%

Q: What about the viability, T/C (second compound 0.00316 µM, first compound 0.01 µM) of the same molecule?
A: 85.2%

Q: And the viability, T/C [1]?
A: 81.6%

Q: And the viability, T/C [2]?
A: 78.5%

Q: And the viability, T/C (second compound 0.01 µM, first compound 0.000316 µM)?
A: 71%

Q: And the viability, T/C (second compound 0.01 µM, first compound 0.001 µM)?
A: 85.1%

Q: What about the viability, T/C (second compound 0.01 µM, first compound 0.00316 µM) of the same molecule?
A: 81.1%

Q: What about the viability, T/C (second compound 0.01 µM, first compound 0.01 µM) of the same molecule?
A: 72.1%

Q: What about the viability, T/C [3] of the same molecule?
A: 67.3%

Q: And the viability, T/C [4]?
A: 68.2%

Q: And the viability, T/C (second compound 0.0316 µM, first compound 0.000316 µM)?
A: 44.6%

Q: What about the viability, T/C (second compound 0.0316 µM, first compound 0.001 µM) of the same molecule?
A: 39.1%

Q: And the viability, T/C (second compound 0.0316 µM, first compound 0.00316 µM)?
A: 41%

Q: What about the viability, T/C (second compound 0.0316 µM, first compound 0.01 µM) of the same molecule?
A: 43%

Q: And the viability, T/C [5]?
A: 39.3%

Q: And the viability, T/C [6]?
A: 35.8%

Q: And the viability, T/C (second compound 0.1 µM, first compound 0.000316 µM)?
A: 19%

Q: And the viability, T/C (second compound 0.1 µM, first compound 0.001 µM)?
A: 18.1%

Q: What about the viability, T/C (second compound 0.1 µM, first compound 0.00316 µM) of the same molecule?
A: 18.2%

Q: What about the viability, T/C (second compound 0.1 µM, first compound 0.01 µM) of the same molecule?
A: 18.9%

Q: And the viability, T/C [7]?
A: 19.9%

Q: And the viability, T/C [8]?
A: 17.4%

Q: What about the viability, T/C (second compound 0.316 µM, first compound 0.000316 µM) of the same molecule?
A: 6.63%

Q: And the viability, T/C (second compound 0.316 µM, first compound 0.001 µM)?
A: 6.64%

Q: And the viability, T/C (second compound 0.316 µM, first compound 0.00316 µM)?
A: 7.07%

Q: And the viability, T/C (second compound 0.316 µM, first compound 0.01 µM)?
A: 7.8%

Q: What about the viability, T/C [9] of the same molecule?
A: 6.66%

Q: And the viability, T/C [10]?
A: 5.37%

Q: What about the viability, T/C (second compound 1 µM, first compound 0.000316 µM) of the same molecule?
A: 1.68%

Q: And the viability, T/C (second compound 1 µM, first compound 0.001 µM)?
A: 1.6%

Q: And the viability, T/C (second compound 1 µM, first compound 0.00316 µM)?
A: 1.91%

Q: And the viability, T/C (second compound 1 µM, first compound 0.01 µM)?
A: 1.67%

Q: And the viability, T/C [11]?
A: 1.93%

Q: And the viability, T/C [12]?
A: 1.28%

Q: Which IC50 (second compound 0.00316 µM) does the source give for CC1(C)CCC(CN2CCN(c3ccc(C(=O)NS(=O)(=O)c4ccc(NCC5CCOCC5)c([N+](=O)[O-])c4)c(Oc4cnc5[nH]ccc5c4)c3)CC2)=C(c2ccc(Cl)cc2)C1 + COc1c(OCCCN2CCOCC2)ccc2c3n(c(=NC(=O)c4cnc(N)nc4)nc12)CCN3 here?
A: 7150 nM

Q: What about the IC50 (second compound 0.01 µM) of the same molecule?
A: 5430 nM

Q: What about the IC50 (second compound 0.0316 µM) of the same molecule?
A: < 31.6 nM

Q: What about the IC50 (second compound 0.1 µM) of the same molecule?
A: < 31.6 nM

Q: And the IC50 (second compound 0.316 µM)?
A: < 31.6 nM

Q: And the IC50 (second compound 1 µM)?
A: < 31.6 nM

Q: What about the viability, T/C [1] of the same molecule?
A: 82%

Q: What about the viability, T/C [2] of the same molecule?
A: 84.2%

Q: And the viability, T/C (second compound 0.00316 µM, first compound 0.316 µM)?
A: 93.8%

Q: What about the viability, T/C (second compound 0.00316 µM, first compound 1 µM) of the same molecule?
A: 96.2%

Q: What about the viability, T/C (second compound 0.00316 µM, first compound 3.16 µM) of the same molecule?
A: 97.5%

Q: What about the viability, T/C (second compound 0.00316 µM, first compound 10 µM) of the same molecule?
A: 33.2%

Q: What about the viability, T/C [3] of the same molecule?
A: 69.6%

Q: What about the viability, T/C [4] of the same molecule?
A: 78.1%

Q: What about the viability, T/C (second compound 0.01 µM, first compound 0.316 µM) of the same molecule?
A: 68%

Q: And the viability, T/C (second compound 0.01 µM, first compound 1 µM)?
A: 74.7%

Q: What about the viability, T/C (second compound 0.01 µM, first compound 3.16 µM) of the same molecule?
A: 70.5%

Q: And the viability, T/C (second compound 0.01 µM, first compound 10 µM)?
A: 26.6%

Q: What about the viability, T/C [5] of the same molecule?
A: 42%

Q: What about the viability, T/C [6] of the same molecule?
A: 50%

Q: And the viability, T/C (second compound 0.0316 µM, first compound 0.316 µM)?
A: 41.5%

Q: What about the viability, T/C (second compound 0.0316 µM, first compound 1 µM) of the same molecule?
A: 40.1%

Q: And the viability, T/C (second compound 0.0316 µM, first compound 3.16 µM)?
A: 44.1%

Q: What about the viability, T/C (second compound 0.0316 µM, first compound 10 µM) of the same molecule?
A: 21.6%

Q: And the viability, T/C [7]?
A: 18.2%

Q: And the viability, T/C [8]?
A: 17.8%

Q: What about the viability, T/C (second compound 0.1 µM, first compound 0.316 µM) of the same molecule?
A: 18.3%

Q: And the viability, T/C (second compound 0.1 µM, first compound 1 µM)?
A: 17.1%

Q: What about the viability, T/C (second compound 0.1 µM, first compound 3.16 µM) of the same molecule?
A: 15.6%

Q: And the viability, T/C (second compound 0.1 µM, first compound 10 µM)?
A: 6.6%

Q: And the viability, T/C [9]?
A: 6.6%

Q: And the viability, T/C [10]?
A: 7.22%

Q: What about the viability, T/C (second compound 0.316 µM, first compound 0.316 µM) of the same molecule?
A: 7.33%

Q: What about the viability, T/C (second compound 0.316 µM, first compound 1 µM) of the same molecule?
A: 5.61%

Q: And the viability, T/C (second compound 0.316 µM, first compound 3.16 µM)?
A: 5.63%

Q: What about the viability, T/C (second compound 0.316 µM, first compound 10 µM) of the same molecule?
A: 3.88%

Q: What about the viability, T/C [11] of the same molecule?
A: 1.61%

Q: What about the viability, T/C [12] of the same molecule?
A: 1.39%

Q: What about the viability, T/C (second compound 1 µM, first compound 0.316 µM) of the same molecule?
A: 1.49%

Q: What about the viability, T/C (second compound 1 µM, first compound 1 µM) of the same molecule?
A: 1.3%

Q: And the viability, T/C (second compound 1 µM, first compound 3.16 µM)?
A: 1.52%

Q: What about the viability, T/C (second compound 1 µM, first compound 10 µM) of the same molecule?
A: 0.86%

Q: With CC1(C)CCC(Nc2ncc(C(F)(F)F)c(-c3c[nH]c4c(P(C)(C)=O)c(C#N)ccc34)n2)CN1 (stereo not given) as the molecule, how does the viability, T/C (compound 0.0316 µM) read?
A: 51.7% [middle of 4 runs]

Q: And the viability, T/C (compound 0.1 µM)?
A: 51.8% [middle of 4 runs]

Q: What about the viability, T/C (compound 0.316 µM) of the same molecule?
A: 53.5% [middle of 4 runs]

Q: And the viability, T/C (compound 1 µM)?
A: 53.4% [middle of 4 runs]

Q: And the viability, T/C (compound 3.16 µM)?
A: 55% and 54.4% (2×) and 52.7%

Q: And the viability, T/C (compound 10 µM)?
A: 7.36% [middle of 4 runs]
